Patent US20220105051A1, “COMPOUNDS FOR INCREASING MHC-I EXPRESSION AND MODULATING HISTONE DEACETYLASE ACTIVITY” (Cava Healthcare Inc., priority 2019, published 2022)
“Also recorded” adds a separate entry of the source.

What was measured:
MHC-I [1] = assay: MHC-I surface expression by flow cytometry; assay type: cell-based, murine; conditions: A9 cells, 48 hours after treatment, flow cytometry
Procedure: A9 and TC-1 cell lines were trypsinized (0.05%, Gibco), washed twice with PBS (Gibco), and stained with allophycocyanin (APC) conjugated anti-mouse H-2K^b antibody (1:200, Biolegend) suspended in 150 μL of FACS buffer (PBS+2% FBS) for 20 minutes at 4° C. Cells were washed twice with PBS and re-suspended in 200 μL FACs buffer containing 1 μL of 7-aminoactinomycin (7AAD) viability stain (Biolegend). Flow cytometry was performed on the LSRII (BDBiosciences) and analysis was done using FlowJo (Flow cytometry Analysis Software).
The marine extract library was provided by Dr. Raymond J. Andersen (UBC). The marine invertebrate specimens were collected by SCUBA diving at a 40 metre depth from regions of high marine biodiversity in Papua New Guinea, Indonesia, Thailand, Sri Lanka, Dominica, Brazil, British Columbia, South Africa, and Norway 35. Previously curcuphenol was identified as the active component in one of the marine extracts showing induction of the APM, and since then two new generations of curcuphenol analogues were synthesized in the lab of Dr. Raymond Anderson. To evaluate the ability of these compounds to induce MHC-I surface expression, A9 cells were plated in 6 well plates at 10^5 cells/well and incubated for 24 hours at 37° C. in a 5% CO2 humidified atmosphere. After 24 hours the medium was removed and replaced with medium containing varying concentration of synthesized compounds (6.7 μg/mL, 20 μg/mL, 60 μg/mL). […] Following treatment, cells were incubated for 48 hours at 37° C. with 5% CO2 and humidified atmosphere. After incubation cells were subjected to flow cytometry.
Evaluation of MHC-I surface expression by flow cytometry. LMD:TAP-1 cells or A9 cells were plated in 6 well plates at a concentration of 10,000 cells per well in a 2 mL volume. The next day, cells were treated with the indicated concentrations of the compounds and incubated for 48 hours at 37° C. After incubation, the cells were trypsinized, washed and stained with APC-conjugated anti-mouse MHC-I (specifically anti-H-2K^b) antibody (Biolegend) and assessed by flow cytometry analysis.

Water solubility = assay type: physicochemical
[2] = tested on: A9 metastatic tumour cells; assay: In vivo tumour trial; set-up: species or system C57BL/6 mice; conditions: daily i.p. for 12 days, P02-113 and P03-97-1 5.2 mg/kg, TSA 0.5 mg/kg
Procedure: (§1) The metastatic cell line, A9, was grown in the DMEM, as previously described without, the addition of antibiotics (penicillin and streptomycin, P/S). Once cells reached 75-80% confluence, they were trypsinized (0.05%, Gibco) and washed with HBSS (Hanks balanced salt solution). The cells were counted using the Bio-RAD TC20 automated cell counter and suspended to a concentration of […] in HBSS. Thirty-two synergistic female C57BL/6 mice, between the ages 6-8 weeks, were subcutaneously injected in the right flank with 50 μL containing 5×10^4 A9 metastatic tumour cells. Seven days following tumour inoculation i.p. treatment began daily for 12 days. Four treatment groups were studied, with eight animals per group. […] Body weights were measured three times a week and once tumours developed they were measured with calipers and tumour volume was calculated. Twelve days after starting treatment, mice were euthanized and tumours were collected and weighed. The tumours were then processed for flow cytometry analysis. Tumours were cut into small pieces and incubated RPMI (Gibco; with P/S 0.5%, Sodium pyruvate 1%, and L-glutamine 1%) and 3 mg/mL collagenase A (Roche) for one hour at 37° C. with shaking. Dissociated tumour cells were passed through a 100 μm filter and spun down at 15,000×RCF for 3 minutes. The pellet was washed once in FACs buffer (2% FBS in PBS) and spun down. The pellet was next suspended in red blood cell (RBC) lysis buffer and kept at room temperature for 5 minutes before being neutralized by the addition of 5 ml of PBS and spun down. If pellets were still found to contain RBCs this step was repeated. Once all RBCs were removed cells were suspended in FACs buffer to a concentration of 10^7 cells/mL. A total volume of 200 ul of cells from each tumour were added to a 96 well plate (Falcon) and incubated with Fc Blocker (Biolegend, 1:400) for twenty minutes at 4° C. The 96 well plate was spun down at 1,200 rmp for three minutes and supernatant was removed. The cells were then suspended in 150 ul of FACs buffer containing anti-CD8a (PE-Cy7, 1:200, eBioscience) and CD4 (APC, 1:200, Biolegend) antibodies and incubated at 4° Celsius for 20 minutes. The cells were washed twice and spun down using FACs buffer before being to flow cytometry tubes in a final volume of 200 ul of FACs buffer containing 7AAD (Biolegend 1:200). Flow cytometry was performed on LSRII (BDBiosciences) and analysis was done using FlowJo (Flow cytometry Analysis Software).
Treatment of tumour-bearing mice with identified compounds. 5×10^4 A9 cells suspended in HBSS were subcutaneously (s.c.) transplanted into the right flank of 32 eight-week-old female C57BI/6 mice, as previously described 75. […] Body weight and tumours (once established) were measured every 2-4 days (more often as tumour size increased). Tumours were measured using calipers and volume was calculated as following: tumour volume=length×width^2. The tumour growth rate was assessed using methods previously described^28.

MHC-I [3] = conditions: earlier work of the lab; cited from earlier work
[4] = literature; cited from earlier work
CD4+ and CD8+ T cells = assay: Analysis of tumour-infiltrating lymphocytes; assay type: in vivo, C57BL/6 mice; conditions: after 12 days of treatment, flow cytometry
Procedure: as §1
Analysis of tumour-infiltrating lymphocytes (TILs). Tumour-infiltrating T lymphocyte (either CD4^+ or CD8^+ T cells) infiltration was evaluated in tumours of mice following 2-week treatment with either compounds or controls. Tumours at the site of initial injection were removed from tumour-bearing mice. Following tumour dissociation in the presence of collagenase A (Roche) and erythrocyte lysis, the tumour cells were then washed and prepared as single-cell suspensions to detect TILs. Before staining with antibodies, the cells were incubated with Fc Blocker (Ebiosciences) for 20 minutes at 4° C. The tumour cells were then washed and stained with anti-CD4-APC (Biolegend), anti-CD8-PECy7 (eBiosciences) and 7-AAD (Biolegend) viability stain. Using flow cytometry, 7-AAD positive dead cells were gated out and the remaining population was assessed for CD4^+ and CD8^+ expression. Data were acquired using a BD™ LSR II flow cytometer (BD Biosciences) with FACSDiva™ software and analyzed with FlowJo software (Treestar).

TAP-1 = assay: High-throughput cell-based screen for TAP-1 induction (EGFP under the TAP-1 promoter); set-up: species or system murine; conditions: LMD:TAP-1 cells, 10 ng/mL
Source text: Identification of marine natural product extracts with the ability to promote up-regulation of TAP-1 and […] expression in cancer cells: A high-throughput cell-based screen was used for identification of candidate compounds that increase the expression of TAP-1 in the LMD murine metastatic prostate cell line. To assess the induction of TAP-1 expression we used the LMD:TAP-1 cell line, which was transfected with a vector containing EGFP under the TAP-1 promoter^44. The Cellomics™ Arrayscan VTI automated fluorescence imager was used to determine the cell numbers based on DNA staining and the average GFP fluorescence intensity which correlates to the levels of TAP-1 induction (FIG. 24A). […]
Cell-based screening assay. […] Image acquisition, segmentation and analysis of micro plates were carried out using the Cellomics™ Arrayscan V^TI automated fluorescence imager (Thermo Fisher Scientific). […] The target activation algorithm was used to identify the nuclei based on Hoechst fluorescence intensity, apply a cytoplasmic mask and quantitate GFP fluorescence intensity within the cytoplasmic mask area. Average GFP fluorescence intensity (intensity per cell per pixel) and total number of cells per well were determined. […]

Cc1ccc(CCCC(O)C(C)(C)O)c(O)c1 (stereo not shown) [P04-149]
induction of MHC-I expression at the cell surface (MHC-I [1]): increases MHC-I expression
water solubility (Water solubility): water soluble

CC(/C=C/C(=O)NO)=C\[C@@H](C)C(=O)c1ccc(N(C)C)cc1 [TSA, Trichostatin A, reference compound]
tumour volume / tumour growth compared to vehicle control ([2]; A9 tumours): reduced
body weight [2]: remained stable; also recorded: no significant changes
restoring the MHC-I on A9 cells (MHC-I [3]): effective in restoring the MHC-I
detection after 24 hours [4]: no detection
half-life [4]: under ten
CD4+ T cell infiltration of tumours (CD4+ and CD8+ T cells): no significant infiltration or difference; also recorded: did not appear to increase
CD8+ T cell (CTL) infiltration of tumours (CD4+ and CD8+ T cells): greatest CD8+ infiltration; also recorded: increase in the CTL infiltration

B1: IFN-γ: known inducer of TAP-1 expression, positive control (protein, UniProt P01579 24-161, looked up)
Interferon gamma: QDPYVKEAENLKKYFNAGHSDVADNGTLFLGILKNWKEESDRKIMQSQIVSFYFKLFKNFKDDQSIQKSVETIKEDMNVKFFNSNKKKRDDFEKLTNYSVTDLNVQRKAIHELIQVMAELSPAAKTGKRKRSQMLFRG
TAP promoter-induced GFP expression (TAP-1): high level of GFP expression
